Measurements: PubChem BioAssay AID1919004 (Molecular Pharmacology Branch, DTP, NCI, 2023)
Several values for one entry are separate records, joined by “and”; a condition that tells them apart may be missing. Equal values may be shown once.

Tested on: 883617-216-R-J1-PDC complex spheroids, growth, % test/control
Test: Anticancer human tumor 883617-216-R-J1-PDC patient-derived bladder carcinoma cell line growth inhibition [AhR]
Conditions: for viability, T/C: stronger effect = lower value
How it was run: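 Agents were dosed in half-log steps down from roughly clinical Cmax, or from 10 microM where Cmax was unknown, alone and with AhR antagonists. Read-out: percent test/control growth of tumor spheroids containing HUVEC and MSC stromal cells.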

[1] = curve of first compound, second compound 0.1 µM
[2] = curve of first compound, second compound 0.316 µM
[3] = curve of first compound, second compound 1 µM
[4] = curve of first compound, second compound 3.16 µM
[5] = curve of first compound, second compound 10 µM
[6] = second compound 0.1 µM, first compound 0.0316 µM
[7] = second compound 0.1 µM, first compound 0.1 µM
[8] = second compound 0.1 µM, first compound 0.316 µM
[9] = second compound 0.1 µM, first compound 1 µM
[10] = second compound 0.1 µM, first compound 3.16 µM
[11] = second compound 0.1 µM, first compound 10 µM
[12] = second compound 0.316 µM, first compound 0.0316 µM
[13] = second compound 0.316 µM, first compound 0.1 µM
[14] = second compound 0.316 µM, first compound 0.316 µM
[15] = second compound 0.316 µM, first compound 1 µM
[16] = second compound 0.316 µM, first compound 3.16 µM
[17] = second compound 0.316 µM, first compound 10 µM
[18] = second compound 1 µM, first compound 0.0316 µM
[19] = second compound 1 µM, first compound 0.1 µM
[20] = second compound 1 µM, first compound 0.316 µM
[21] = second compound 1 µM, first compound 1 µM
[22] = second compound 1 µM, first compound 3.16 µM
[23] = second compound 1 µM, first compound 10 µM
[24] = second compound 3.16 µM, first compound 0.0316 µM
[25] = second compound 3.16 µM, first compound 0.1 µM
[26] = second compound 3.16 µM, first compound 0.316 µM
[27] = second compound 3.16 µM, first compound 1 µM
[28] = second compound 3.16 µM, first compound 3.16 µM
[29] = second compound 3.16 µM, first compound 10 µM
[30] = second compound 10 µM, first compound 0.0316 µM
[31] = second compound 10 µM, first compound 0.1 µM
[32] = second compound 10 µM, first compound 0.316 µM
[33] = second compound 10 µM, first compound 1 µM
[34] = second compound 10 µM, first compound 3.16 µM
[35] = second compound 10 µM, first compound 10 µM
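Further: exposure lasted 7 days after dosing on day 3 of spheroid growth.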

Compound	IC50 [1]	IC50 [2]	IC50 [3]	IC50 [4]	IC50 [5]	viability, T/C [6]	viability, T/C [7]	viability, T/C [8]	viability, T/C [9]	viability, T/C [10]	viability, T/C [11]	viability, T/C [12]	viability, T/C [13]	viability, T/C [14]	viability, T/C [15]	viability, T/C [16]	viability, T/C [17]	viability, T/C [18]	viability, T/C [19]	viability, T/C [20]	further results
O=C(C=Cc1cccc(S(=O)(=O)Nc2ccccc2)c1)NO + CC(CO)NC(=O)c1cc(-c2ccc(Cl)cc2)nn(-c2cnn(C)c2)c1=O	3.57 µM	3.5 µM	0.793 µM	1.51 µM	1.82 µM	88.5%	96.9%	78.1%	86.6%	55%	7.64%	95.2%	87.6%	85.7%	105%	54.7%	1.72%	75.3%	62.7%	113%	viability, T/C [21]: 41.5%; viability, T/C [22]: 41.6%; viability, T/C [23]: 1.68%; viability, T/C [24]: 104%; viability, T/C [25]: 66%; viability, T/C [26]: 67.6%; viability, T/C [27]: 69.5%; viability, T/C [28]: 36.6%; viability, T/C [29]: 6.34%; viability, T/C [30]: 101%; viability, T/C [31]: 89.5%; viability, T/C [32]: 101%; viability, T/C [33]: 54%; viability, T/C [34]: 40.9%; viability, T/C [35]: 1.34%
Cn1ncnc1C1c2n[nH]c(=O)c3cc(F)cc(c23)NC1c1ccc(F)cc1 (configuration not stated)																					viability, T/C (compound 0.000316 µM): 105% (2×) and 85.5%; viability, T/C (compound 0.001 µM): 111% and 107% and 106%; viability, T/C (compound 0.00316 µM): 103% and 101% and 76.3%; viability, T/C (compound 0.01 µM): 97.2% and 91.8% and 87.1%; viability, T/C (compound 0.0316 µM): 82.2% and 83.4% and 63.1%; viability, T/C (compound 0.1 µM): 75.4% and 77% and 89.1%; IC50 (curve of compound): > 0.1 µM
COc1cc(C2c3cc4c(cc3C(OC3OC5COC(C)OC5C(O)C3O)C3COC(=O)C23)OCO4)cc(OC)c1O (configuration not stated) + Cc1cncc(-c2nc(NCCc3c[nH]c4ccccc34)c3ncn(C(C)C)c3n2)c1	> 10 µM	> 10 µM	> 10 µM	> 10 µM	0.0688 µM	77.3%	81.3%	70%	66.8%	69.6%	57.4%	84.9%	81.1%	73.6%	65.3%	64.1%	60.9%	91.4%	86.4%	78.7%	viability, T/C [21]: 71.5%; viability, T/C [22]: 81.4%; viability, T/C [23]: 64.7%; viability, T/C [24]: 89.9%; viability, T/C [25]: 89%; viability, T/C [26]: 80.1%; viability, T/C [27]: 79%; viability, T/C [28]: 70%; viability, T/C [29]: 65.6%; viability, T/C [30]: 51.4%; viability, T/C [31]: 50.3%; viability, T/C [32]: 49.9%; viability, T/C [33]: 39.1%; viability, T/C [34]: 41.5%; viability, T/C [35]: 45.5%
